What was measured:
pendrin = target: T1, pendrin (Homo sapiens, UniProt O43511); assay: Pendrin-mediated Cl^−/HCO3^− exchange in IL-4-treated HNE and HBE cells; type: cell-based
T1 construct: endogenous in cells; host or cells: primary HNE and HBE cells, IL-4 treated
Experimental: Chinese hamster ovary (CHO)-K1 cells were maintained in a DMEM medium containing 10% fetal bovine serum (FBS), 100 units/ml penicillin and 100 100 μg/ml streptomycin. CHO-K1 cells were stably transfected with pcDNA3.1 encoding halide sensor YFP-H148Q/I152L/F46L and human wild-type (WT)-pendrin. For distribution of primary culture of human nasal cavity epithelium (HNE) cells, passage-2 cells were seeded into transwell-transparent culture inserts with a pore size of 0.45 μm (Costar Co., Cambridge, MA) at a density of 2×10^5 cells/cm^2. […]
For measurement of Cl^−/HCO3^− exchange activity, intracellular pH (pHi) was measured in WT-pendrin expressing CHO-K1 and HNE cells using pH sensor SNARF5-AM (Molecular Probes). The cells were treated with 5 μM SNARF5-AM for 30 minutes, and then were equipped in a perfusion chamber on the stage of a reverse fluorescence microscope (Nikon, Tokyo, Japan) equipped with a cooled charge-coupled device camera (Zyla sCMOS), image acquisition and analysis software (Meta Imaging Series 7.7). […] SNARF5 fluorescence was recorded at 515±10 nm of the excitation wavelength and 640±10 nm of the emission wavelength, and intracellular pH calibration was performed with a solution including 145 mM KCl, 10 mM HEPES and […] nigericin having a calibrated pH to 6.2-7.6.

HNE cells = assay: ASL and fluid meniscus volume measurement in HNE cells; type: cell-based, human
Experimental: The total volume of ASL and fluid meniscus, which is fluid with the cell culture insert wall, was measured by fluid absorption through filter paper. Whatman filter paper (10 mm diameter circle; GE Healthcare) was placed on the apical size of a 12-well transwell insert (Costar Co.) for 10 seconds. The absorption of the ASL and fluid meniscus was measured from the weight change of the filter paper. The weight of the filter paper was measured using an analysis scale (Sartorius BP61S; Sartorius AG, Gottingen, Germany).

NF-κ = assay: IVIS lung fluorescence in LPS-treated NF-κ reporter/SPC-Cre-ERT2 mice; type: in vivo, mouse; details: 10 mg/kg i.p., 6 hours after LPS
From the text: From Orient Bio (Sungnam, Republic of Korea), 8-10-week-old wild-type male C57BL/6J mice having a body weight of 20-24 g were purchased. Food and water were provided to all the animals, and the similar optical cycle of day and night was applied. Transfected NF-κ reporter/SPC-Cre-ERT2 mice were used for IVIS in the present invention. Briefly, NF-κ reporter mice contain ROSA26 lox-STOP-lox-cassette inserted between a promoter and NF-κ gene. In general, a stop gene is positioned between loxP and loxP, and NF-κ is not expressed. NF-κ reporter/SPC-Cre-ERT2 mice were obtained by raising ROSA26R mice to surfactant protein C(SPC)-Cre-ERT2 mice. The Cre-ERT2 recombinase activity in these transfected mice was induced by tamoxifen. These NF-κ reporter/SPC-Cre-ERT2 mice express NF-κ activity in the alveolar epithelium by one of dTomato fluorescence or luciferase in presence of tamoxifen. […]
Imaging of living animals and organs was performed using IVIS […] imaging system Caliper Life Sciences, Preston Brook Runcorn, UK). […] Fluorescence excite light was provided by a halogen lamp combined with an appropriate excite filter. […] The fluorescence imaging was obtained with an excitation wavelength of 554 nm and an emission wavelength of 581 nm (dTomato). […] In Living Image software (version 3.2, Caliper Life Sciences), using an area of interest tool, fluorescence was quantified.

T1 sequence (O43511 whole entry): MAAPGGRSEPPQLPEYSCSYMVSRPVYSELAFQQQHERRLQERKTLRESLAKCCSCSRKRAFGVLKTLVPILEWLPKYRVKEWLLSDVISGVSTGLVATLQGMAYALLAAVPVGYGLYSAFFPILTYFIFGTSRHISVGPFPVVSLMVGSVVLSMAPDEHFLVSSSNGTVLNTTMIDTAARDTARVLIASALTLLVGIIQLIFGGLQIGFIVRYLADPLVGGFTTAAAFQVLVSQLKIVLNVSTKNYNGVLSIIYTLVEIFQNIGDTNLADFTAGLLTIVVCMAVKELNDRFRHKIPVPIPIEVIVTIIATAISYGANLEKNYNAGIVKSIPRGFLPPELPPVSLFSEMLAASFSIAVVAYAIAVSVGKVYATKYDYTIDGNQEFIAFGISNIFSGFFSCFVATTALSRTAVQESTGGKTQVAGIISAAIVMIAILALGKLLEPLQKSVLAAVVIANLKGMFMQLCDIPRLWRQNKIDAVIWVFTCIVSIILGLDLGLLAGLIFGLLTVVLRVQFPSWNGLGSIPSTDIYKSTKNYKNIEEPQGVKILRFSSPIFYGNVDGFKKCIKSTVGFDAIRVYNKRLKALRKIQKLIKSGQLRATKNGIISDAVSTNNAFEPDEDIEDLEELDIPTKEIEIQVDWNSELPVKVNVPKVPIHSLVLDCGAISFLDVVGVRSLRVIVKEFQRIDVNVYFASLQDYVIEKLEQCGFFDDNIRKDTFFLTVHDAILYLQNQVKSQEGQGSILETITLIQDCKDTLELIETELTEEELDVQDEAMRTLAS

inhibition of pendrin-mediated Cl^−/HCO3^− exchange activity (pendrin; IL-4-treated HNE and HBE cells, acute treatment): potentially inhibited
IL-4-induced upregulation of the Cl^−/HCO3^− exchange activity (pendrin; long-term treatment, HNE cells): strongly reduced
SMILES: CC(C)(C)c1ccc(C2=NC(=Cc3cccs3)C(=O)O2)cc1 [F56, 2-(4-(tert-butyl)phenyl)-4-(thiophen-2-ylmethylene)oxazol-5(4H)-one]
total volume of ASL and fluid meniscus (HNE cells; IL-4-treated HNE cells expressing a mutant pendrin): not changed
total volume of ASL and fluid meniscus (HNE cells; IL-4 and IL-13-treated HNE cells expressing wild-type pendrin): hardly reduced
fluorescence of the excised lung (NF-κ activation) (NF-κ): inhibited
